In PubChem BioAssay (NCI) one finds TGI and GI50 data, which are given here for 30 molecules.

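Tested at 5 concentrations; 48 h exposure; 96-well plates; endpoints linearly interpolated, else capped at highest concentration. Here, GI50 denotes the concentration required for 50% inhibition of growth. Definition used: TGI = concentration required for complete inhibition of growth.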

Holding throughout (assay): NCI tumour cell line growth inhibition, 48 h
Experiment [1] relates to ACHN renal.
In experiment [2] the test system is HCT-15 colon.
Experiment [3] relates to OVCAR-5 ovarian.
Experiment [4] has as its system RPMI-8226 leukemia.
The test system of experiment [5] is SK-MEL-2 melanoma.
Experiment [6] has as its system SK-MEL-28 melanoma.
Experiment [7] deals with SNB-75 CNS.
Experiment [8] relates to CAKI-1 renal.
Experiment [9] relates to DU-145 prostate.

Take `CC(C)(C)CC(C)(C)c1cc2c(O)c(c1)Cc1cc(C(C)(C)CC(C)(C)C)cc(c1O)Cc1cc(C(C)(C)CC(C)(C)C)cc(c1O)Cc1cc(C(C)(C)CC(C)(C)C)cc(c1O)Cc1cc(C(C)(C)CC(C)(C)C)cc(c1O)C2`: the TGI in [1], in [2], in [3], in experiment [4], in [5] and in [6] was greater than 100 µM throughout. In experiment [7], this molecule had a TGI greater than 100 µM.

On to `CC(C)[O-].CC(C)[O-].O=C1C=C([O-])C(=O)c2ccccc21.O=C1C=C([O-])C(=O)c2ccccc21.[Ti+4]`, for which the GI50 is greater than 85.5 µM in [1]; greater than 91.3 µM in experiment [8]; greater than 73.4 µM in experiment [2]; greater than 100 µM in experiment [3]; 19.1 µM in experiment [4]; 17.2 µM in experiment [5]. In addition, the values for the GI50 in experiment [6] and in experiment [7] were greater than 100 µM and 17.5 µM, respectively. Also, the TGI is greater than 100 µM in [1]; greater than 100 µM in [8]; greater than 100 µM in experiment [2]; greater than 100 µM in experiment [3]; greater than 100 µM in experiment [4]; greater than 71.2 µM in [5]. For the same molecule, the TGI in experiment [6] and in experiment [7] was greater than 100 µM in each case.

For `CC1=C(C(=O)Nc2cc(=O)n(C)c(=O)n2C)C(c2cccc([N+](=O)[O-])c2)C(C(=O)Nc2cc(=O)n(C)c(=O)n2C)=C(C)N1`, the TGI in experiment [1], in experiment [8], in experiment [3], in experiment [4], in experiment [5] and in [6] was greater than 100 µM in each case. This molecule also showed a TGI in experiment [7] of 99.5 µM.

As for `CN1CC(=O)N(C)c2ncn(Cc3ccccc3)c2C1=O`, the TGI in experiment [1], in experiment [2], in [4], in experiment [6] and in experiment [7] was greater than 100 µM throughout.

As for `COc1cc(OC)c(SSCCCCS(=O)O)c(OC)c1`, the TGI in experiment [1] was determined as 31.8 µM; in experiment [2], 34.2 µM; in experiment [3], 30.5 µM; in experiment [5] it was 54.6 µM; in experiment [6] it was 29.7 µM; in experiment [7] it was 25.4 µM.

Consider `COc1ccc(-c2cc(=O)c3ccccc3o2)cc1N`, for which the TGI in experiment [1], in experiment [8], in [2], in [3], in experiment [4] and in experiment [5] was greater than 100 µM in each case. The values for the TGI in experiment [6] and in experiment [7] were greater than 100 µM and 93.2 µM, respectively.

Turning to `NC(=O)CCC(Nc1c2ccccc2nc2ccccc12)C(=O)O` (stereo not drawn), the TGI in experiment [1], in experiment [8], in [2], in experiment [3], in [4] and in experiment [5] was greater than 100 µM throughout. Also, the TGI in experiment [6] and in experiment [7] was greater than 100 µM in each case.

Regarding `C[C@]12CCC(=O)C(O)=C1CC[C@@H]1C2CC[C@]2(C)NC(=O)CCC12` (stereo partly drawn), the TGI in experiment [1], in experiment [8], in experiment [2], in [3], in experiment [4] and in experiment [5] was greater than 100 µM throughout. In addition, the TGI in experiment [6] and in experiment [7] was greater than 100 µM in each case.

In the case of `CCN(CC)CCCNC(=O)C1COc2cc(-c3cc(=O)c4ccccc4o3)ccc2O1` (stereo not drawn), the TGI was greater than 100 µM in experiment [1]; greater than 100 µM in experiment [8]; greater than 100 µM in experiment [2]; greater than 100 µM in experiment [3]; greater than 100 µM in experiment [4]; 40.8 µM in [6]. In experiment [7], this molecule registered a TGI greater than 100 µM.

On to `COc1ccc(NC(=O)CC/C(CC(=O)C(C)(C)C)=N\NC(=O)C(=O)NN)cc1`, for which the TGI in [1], in experiment [8], in [2], in [3], in experiment [4] and in experiment [5] was greater than 100 µM each time. Besides, the TGI in experiment [6] and in experiment [7] was greater than 100 µM throughout.

`O=C(CCc1nnc2s/c(=C\c3ccc(Cl)c(Cl)c3)c(=O)n12)Nc1ccc(Cl)c(Cl)c1`: the TGI in experiment [1] was greater than 100 µM; in experiment [8] it was greater than 100 µM; in experiment [2], greater than 100 µM; in experiment [3], greater than 100 µM; in [4], 62.2 µM; in experiment [6], greater than 100 µM. The same molecule showed a TGI in [7] greater than 100 µM.

With `O=C(c1ccccc1)c1c(-c2ccccc2)sc2nc3ccccc3nc12`, the TGI in [1], in [8], in experiment [2], in experiment [3], in experiment [4] and in experiment [5] was greater than 100 µM in each case. Besides, the values for the TGI in experiment [6] and in experiment [7] were greater than 100 µM and 85.6 µM, respectively.

Take `CC(=O)c1cccc(C)c1C(=O)O`: the TGI in experiment [1], in experiment [8], in experiment [2], in experiment [3], in experiment [4] and in [5] was greater than 100 µM throughout. In addition, the TGI in [6] and in experiment [7] was greater than 100 µM in each case.

Take `C#CCOCn1cnc2c(Sc3c([N+](=O)[O-])ncn3C)ncnc21`: the TGI in experiment [1], in experiment [8], in [2], in experiment [3], in experiment [4] and in experiment [5] was greater than 100 µM in each case. Also, the values for the TGI in [6] and in experiment [7] were greater than 100 µM and 72.7 µM, respectively.

As for `COC(=O)C1=C(O)c2cc(-c3ccccc3)c(-c3ccccc3)c(C#N)c2NC(=O)C1`, the TGI was greater than 100 µM in [1]; 85.8 µM in experiment [8]; greater than 100 µM in [2]; greater than 100 µM in experiment [5]; greater than 100 µM in experiment [6]; 93.3 µM in experiment [7].

Take `CCOc1ccc(N=Cc2ccc3cc(C)ccc3n2)cc1`: the TGI in [1] was greater than 100 µM; in experiment [8] it was greater than 100 µM; in experiment [2], greater than 100 µM; in experiment [3], greater than 100 µM; in experiment [4], 57.3 µM; in experiment [5], greater than 100 µM. In addition, the TGI in experiment [6] and in [7] was greater than 100 µM each time.

For the molecule `O=S(=O)(NCCCNc1nccc(-c2c(-c3ccc(F)c(O)c3)nc3sccn23)n1)c1ccc(F)cc1`, the GI50 in experiment [1] is 2.24 µM; in experiment [8], 3.57 µM; in experiment [2], 2.42 µM; in [3] it was 3.41 µM; in experiment [5], 0.717 µM; in experiment [6], 0.104 µM. Further, in experiment [7], the GI50 is 2.02 µM. For the same molecule, the TGI was 8.86 µM in experiment [1]; greater than 100 µM in [8]; 10.8 µM in experiment [2]; greater than 100 µM in [3]; 3.01 µM in experiment [5]; greater than 100 µM in [6]. Besides, the TGI in experiment [7] stood at 8.38 µM.

As for `CC(=O)CC(N)=O`, the TGI in experiment [1], in experiment [8], in experiment [2], in experiment [3], in experiment [4] and in [5] was greater than 100 µM throughout. For the same molecule, the TGI in [6] and in [7] was greater than 100 µM throughout.

As for `O=C(O)Cc1cc(=O)[nH]c2c1/C(=N/O)CCC2`, the TGI in experiment [1], in experiment [2], in experiment [3], in experiment [4], in experiment [5] and in [6] was greater than 100 µM in each case.

For `CCOC(=O)Cc1ccc2c(c1O)C(=O)c1c(ccc(CC(=O)OCC)c1O)C2=O`, the TGI in experiment [1], in experiment [3], in [4], in experiment [5], in [6] and in [7] was greater than 100 µM in each case.

`C#CC1(OC(C)=O)CCC2C3CC=C4C=C(OC(C)=O)CCC4(C)C3CCC21C` (stereo not drawn): the TGI in experiment [1] is 70.7 µM; in experiment [8], 83.2 µM; in experiment [9] it was 97.4 µM; in experiment [2] it was 62.5 µM; in experiment [3], greater than 100 µM; in experiment [5], 41.1 µM. For the same molecule, the figures for the TGI in experiment [6] and in [7] were 53.6 µM and greater than 100 µM, respectively.

Consider `CCC(=O)Nc1ccccc1C#C/C=C\C#Cc1ccccc1SC`, for which the GI50 in experiment [1] is 30.1 µM; in experiment [8], 5.18 µM; in experiment [9] it was 40.5 µM; in experiment [2] it was 4.27 µM; in experiment [3], 33.3 µM; in experiment [4], 1.26 µM. For the same molecule, the GI50 in [5] was 0.0742 µM; in experiment [6], 8.75 µM; in [7], 4.76 µM. Moreover, the TGI in experiment [1] was greater than 100 µM; in [8] it was greater than 100 µM; in experiment [9] it was greater than 100 µM; in experiment [2], greater than 100 µM; in experiment [3], greater than 100 µM; in experiment [4], 11.7 µM. Besides, the values for the TGI in [5], in experiment [6] and in experiment [7] were 3.83 µM, greater than 100 µM and greater than 100 µM, respectively.

As to `COc1ccc2c3c([nH]c2c1[N+](=O)[O-])C(C)N(Cc1ccc([N+](=O)[O-])cc1)CC3` (stereo not drawn), the TGI in experiment [1] was greater than 100 µM; in [8] it was 32.5 µM; in experiment [2] it was 54.9 µM; in experiment [3] it was greater than 100 µM; in experiment [4], 26.2 µM; in experiment [5], 41 µM. This molecule showed a TGI in [6] of 44.5 µM.

Regarding `C=C(C)[C@@H]1CC[C@]2(C(=O)O)CC[C@]3(C)[C@H](CC[C@@H]4[C@@]5(C)CCC(NC(=O)c6cccc(OC(C)=O)c6OC(C)=O)C(C)(C)[C@@H]5CC[C@]43C)[C@@H]12` (stereo partly drawn), the GI50 in [1] was 0.323 µM; in experiment [8], 0.371 µM; in [9], 0.882 µM; in experiment [2], 0.418 µM; in experiment [3] it was 1.92 µM; in experiment [4], 0.697 µM. The GI50 in [5] is 0.981 µM; in experiment [6], 0.46 µM; in experiment [7], 0.452 µM. For the same molecule, the TGI in experiment [1] was 2.61 µM; in experiment [8], 2.24 µM; in experiment [9], greater than 100 µM; in [2] it was 3.73 µM; in experiment [3], greater than 27.3 µM; in [4], 4.44 µM. The TGI in experiment [5] was determined as 4.02 µM; in experiment [6] it was 3.03 µM; in [7] it was 5.44 µM.

As for `O=C1O[C@H](c2ccccc2)[C@@H]2CC3(CCN12)OCCO3`, the TGI in experiment [1], in experiment [8], in experiment [2], in [3], in [4] and in experiment [5] was greater than 100 µM each time. Also, in [6], the TGI was greater than 100 µM.

Turning to `CC1=C[C@]2(O)C(=O)[C@H](C)C[C@H]3[C@@H](CC[C@@](C)(O)/C=C\2C1=O)C3(C)C`, the TGI is 54.6 µM in experiment [1]; 55.4 µM in [8]; 32.4 µM in [2]; greater than 100 µM in experiment [3]; greater than 73.3 µM in experiment [4]; 37.9 µM in [5]. In addition, the results for the TGI in [6] and in experiment [7] were 33.1 µM and greater than 100 µM, respectively.

As for `O=C1C=CC(=O)C12CCc1ccccc12`, the TGI was greater than 100 µM in experiment [1]; greater than 31.6 µM in experiment [8]; greater than 100 µM in experiment [2]; greater than 100 µM in [3]; 45.8 µM in [4]; greater than 100 µM in [5]. For the same molecule, the TGI in experiment [6] and in experiment [7] was greater than 100 µM each time.

For `CN(C)CCNC(=O)c1cccc2nc3cc(Cl)ccc3nc12`, the TGI is 4.22 µM in [1]; greater than 23.5 µM in [8]; 11.5 µM in experiment [2]; 7.62 µM in experiment [3]; 31.6 µM in experiment [4]; 7.57 µM in [5]. The TGI was found to be 8.27 µM in experiment [6] and 15.4 µM in experiment [7].

Turning to `Cn1nc(-c2ccccc2)c(C(=O)/C=C/c2ccc(Cl)cc2)c(N2CCCCC2)c1=O`, the TGI in experiment [1] was determined as 4.31 µM; in experiment [8] it was 3.94 µM; in experiment [2] it was 15 µM; in [4], 5.52 µM; in experiment [6], 14.3 µM.

As for `CC(=O)OC1CCn2nnc(CO)c21` (stereo not drawn), the TGI in experiment [8], in experiment [2], in experiment [3], in experiment [4], in experiment [5] and in experiment [6] was greater than 100 µM each time. Further, the TGI in [7] was greater than 100 µM.
